Experimental data taken from patent US6225478A, “Iridoid derivatives and neovascularization inhibitors containing the same as active ingredient” (Tsumura & Co., priority 1999, dated 2001).

Each molecule was assayed on HUFEC (assay: Cell Migration Assay (CMA) Test, inhibitory rate with control (-) correction). Conditions: Homo sapiens, 24 h, 125 μl of 0.32 mM sample solution in 4.0 ml medium, 80% or more = remarkable.
Assay type: cell-based, human
How it was run: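 Confluent HUFEC monolayers were scratch-wounded, then cultured 24 h at 37 °C, 5% CO2 in M199 (2+) medium with compound added as 125 μl of a 0.32 mM solution (3.2% DMSO) per 4 ml. Giemsa-stained cells migrating into 1 mm×1 mm blocks counted; inhibition % calculated relative to control (+) and control (−) wells.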
In the case of `COC(=O)C1=CO[C@@H](OC(=O)NCc2cccnc2)[C@@H]2C(C)=CC[C@H]12` [I-76], the inhibition at 320 µM (stock) was 7.6%. For `COC(=O)C1=CO[C@@H](OC(=O)NCc2ccc3c(c2)OCO3)[C@@H]2C(C)=CC[C@H]12` [I-129], the inhibition at 320 µM (stock) was 4.3%. For `COC(=O)C1=CO[C@@H](OC(=O)NCc2ccc(F)cc2)[C@H]2[C@@H]1CC[C@@H]2C` [I-213], the inhibition at 320 µM (stock) was 21.5%. `COC(=O)C1=CO[C@@H](OC(=O)NCc2ccccc2)[C@H]2[C@@H]1CC[C@@H]2C` [I-183] gave an inhibition at 320 µM (stock) of 25.4%. `CNC(=O)O[C@@H]1OC=C(C(=O)O)[C@H]2CC=C(C)[C@@H]12` [I-307] showed an inhibition at 320 µM (stock) of 52.5%. For `COC(=O)C1=CO[C@@H](OC(=O)NCc2ccc(S(N)(=O)=O)cc2)[C@@H]2C(C)=CC[C@H]12` [I-133], the inhibition at 320 µM (stock) was 3.9%. Work on `COC(=O)C1=CO[C@@H](OC(=O)N2CCc3ccccc3C2)[C@H]2[C@@H]1CC[C@@H]2C` [I-225] yielded an inhibition at 320 µM (stock) of 25%. In the case of `COC(=O)C1=CO[C@@H](OC(=O)NC2CCN(Cc3ccccc3)CC2)[C@@H]2C(C)=CC[C@H]12` [I-89], the inhibition at 320 µM (stock) was 9.9%. `COC(=O)C1=CO[C@@H](OC(=O)NCCc2c[nH]c3ccccc23)[C@@H]2C(C)=CC[C@H]12` [I-115] showed an inhibition at 320 µM (stock) of 3.1%. `COC(=O)C1=CO[C@@H](OC(=O)NCCCCl)[C@H]2[C@@H]1CC[C@@H]2C` [I-244] showed an inhibition at 320 µM (stock) of 19.5%. With `COC(=O)C1=CO[C@@H](OC(=O)Nc2c(F)cccc2F)[C@@H]2C(C)=CC[C@H]12` [I-157] the inhibition at 320 µM (stock) was 7.7%. For `COC(=O)C1=CO[C@@H](OC(=O)NC(=O)c2ccccc2)[C@H]2[C@@H]1CC[C@@H]2C` [I-272], the inhibition at 320 µM (stock) was 5.7%. `COC(=O)C1=COC[C@@H]2C(C)=CC[C@H]12` [I-302] was tested, and the inhibition at 320 µM (stock) was 26.6%. `COC(=O)C1=CO[C@@H](OC(=O)NC2CCCCCC2)[C@H]2[C@@H]1CC[C@@H]2C` [I-208] was tested, and the inhibition at 320 µM (stock) was 7.6%. For `COC(=O)C1=CO[C@@H](OC(=O)N(C)CCN(C)C)[C@H]2[C@@H]1CC[C@@H]2C` [I-189], the inhibition at 320 µM (stock) was 8.5%. In the case of `COC(=O)C1=CO[C@@H](OC(=O)Nc2ccc(SC)cc2)[C@@H]2C(C)=CC[C@H]12` [I-172], the inhibition at 320 µM (stock) was 5.5%. Work on `COC(=O)C1=CO[C@@H](OC(=O)NCCCCCO)[C@@H]2C(C)=CC[C@H]12` [I-104] yielded an inhibition at 320 µM (stock) of 24.1%. `COC(=O)C1=CO[C@@H](OC(=O)Nc2ccc(Cl)cc2)[C@@H]2C(C)=CC[C@H]12` [I-162] gave an inhibition at 320 µM (stock) of 8.9%. `COC(=O)C1=CO[C@@H](OC(=O)N(C)C)[C@H]2[C@@H]1CC[C@@H]2C` [I-239] showed an inhibition at 320 µM (stock) of 7.8%. With `COC(=O)C1=CO[C@@H](OC(=O)Nc2cccc(C(C)=O)c2)[C@H]2[C@@H]1CC[C@@H]2C` [I-273] the inhibition at 320 µM (stock) was 3.8%. In the case of `CNC(=O)O[C@@H]1OC=C(C(=O)OC)[C@H]2CC[C@H](C)[C@@H]12` [I-254], the inhibition at 320 µM (stock) was 4.7%. `COC(=O)C1=CO[C@@H](OC(=O)NCc2ccc(F)cc2F)[C@H]2[C@@H]1CC[C@@H]2C` [I-195] was tested, and the inhibition at 320 µM (stock) was 15.7%. `CCNC(=O)O[C@@H]1OC=C(C(=O)OC)[C@H]2CC=C(C)[C@@H]12` [I-151] was tested, and the inhibition at 320 µM (stock) was 35.9%. Work on `CONC(=O)O[C@@H]1OC=C(C(=O)OC)[C@H]2CC=C(C)[C@@H]12` [I-137] yielded an inhibition at 320 µM (stock) of 3.3%. `COC(=O)C1=CO[C@@H](OC(=O)NCCO)[C@H]2[C@@H]1CC[C@@H]2C` [I-187] was tested, and the inhibition at 320 µM (stock) was 31.3%. `COC(=O)C1=CO[C@@H](OC(=O)Nc2ccc(F)cc2)[C@H]2[C@@H]1CC[C@@H]2C` [I-264] showed an inhibition at 320 µM (stock) of 6.7%. For `COC(=O)C1=CO[C@@H](OC(=O)Nc2ccc(Cl)cc2)[C@H]2[C@@H]1CC[C@@H]2C` [I-260], the inhibition at 320 µM (stock) was 8.9%. With `COC(=O)C1=CO[C@@H](OC(=O)N2CCN(CCO)CC2)[C@@H]2C(C)=CC[C@H]12` [I-71] the inhibition at 320 µM (stock) was 25.4%.

These molecules were tested on human umbilical-vein endothelial cells (HUVEC) (assay: Tube Formation Assay (TFA) Test, HUVEC in collagen gel). Conditions: Homo sapiens, HUVEC, Tables 75-83; 0.32 mM sample solution; method as for Compounds 1 through 60; read-out: TFA Inhibition rate (%).
Assay type: cell-based
How it was run: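 HUVEC (7th subculture, 1×10^5 cells/ml) attached to collagen gel for 2 h at 37 °C, given sample and overlaid with collagen, then cultured 20 h at 37 °C, 5% CO2 in M-199 with 20% FCS, 30 ng/ml b-FGF and 0.1 μM PMA. Tube length measured by image analysis; % inhibition relative to positive and negative controls.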
Work on `COC(=O)C1=CO[C@@H](OC(=O)NCc2cccnc2)[C@@H]2C(C)=CC[C@H]12` [I-76] yielded an inhibition at 320 µM (stock) of 4.6%. With `COC(=O)C1=CO[C@@H](OC(=O)NCc2ccc3c(c2)OCO3)[C@@H]2C(C)=CC[C@H]12` [I-129] the inhibition at 320 µM (stock) was 19.5%. `COC(=O)C1=CO[C@@H](OC(=O)NCc2ccc(F)cc2)[C@H]2[C@@H]1CC[C@@H]2C` [I-213] was tested, and the inhibition at 320 µM (stock) was 6.2%. `COC(=O)C1=CO[C@@H](OC(=O)NCc2ccccc2)[C@H]2[C@@H]1CC[C@@H]2C` [I-183] gave an inhibition at 320 µM (stock) of 8.7%. `COC(=O)C1=CO[C@@H](OC(=O)NCc2ccc(S(N)(=O)=O)cc2)[C@@H]2C(C)=CC[C@H]12` [I-133] was tested, and the inhibition at 320 µM (stock) was 9.5%. `COC(=O)C1=CO[C@@H](OC(=O)N2CCc3ccccc3C2)[C@H]2[C@@H]1CC[C@@H]2C` [I-225] was tested, and the inhibition at 320 µM (stock) was 5.5%. `COC(=O)C1=CO[C@@H](OC(=O)NC2CCN(Cc3ccccc3)CC2)[C@@H]2C(C)=CC[C@H]12` [I-89] was tested, and the inhibition at 320 µM (stock) was 31.3%. In the case of `COC(=O)C1=CO[C@@H](OC(=O)NCCc2c[nH]c3ccccc23)[C@@H]2C(C)=CC[C@H]12` [I-115], the inhibition at 320 µM (stock) was 6.8%. For `COC(=O)C1=CO[C@@H](OC(=O)NCCCCl)[C@H]2[C@@H]1CC[C@@H]2C` [I-244], the inhibition at 320 µM (stock) was 5.2%. `COC(=O)C1=CO[C@@H](OC(=O)Nc2c(F)cccc2F)[C@@H]2C(C)=CC[C@H]12` [I-157] gave an inhibition at 320 µM (stock) of 12.9%. `COC(=O)C1=CO[C@@H](OC(=O)NC(=O)c2ccccc2)[C@H]2[C@@H]1CC[C@@H]2C` [I-272] gave an inhibition at 320 µM (stock) of 7.9%. Molecule `COC(=O)C1=COC[C@@H]2C(C)=CC[C@H]12` [I-302] has an inhibition at 320 µM (stock) of 12.5%. `COC(=O)C1=CO[C@@H](OC(=O)NC2CCCCCC2)[C@H]2[C@@H]1CC[C@@H]2C` [I-208] gave an inhibition at 320 µM (stock) of 8.2%. For `COC(=O)C1=CO[C@@H](OC(=O)N(C)CCN(C)C)[C@H]2[C@@H]1CC[C@@H]2C` [I-189], the inhibition at 320 µM (stock) was 4.7%. `COC(=O)C1=CO[C@@H](OC(=O)Nc2ccc(SC)cc2)[C@@H]2C(C)=CC[C@H]12` [I-172] showed an inhibition at 320 µM (stock) of 8.7%. `COC(=O)C1=CO[C@@H](OC(=O)NCCCCCO)[C@@H]2C(C)=CC[C@H]12` [I-104] gave an inhibition at 320 µM (stock) of 3.8%. Work on `COC(=O)C1=CO[C@@H](OC(=O)Nc2ccc(Cl)cc2)[C@@H]2C(C)=CC[C@H]12` [I-162] yielded an inhibition at 320 µM (stock) of 7.5%. `COC(=O)C1=CO[C@@H](OC(=O)N(C)C)[C@H]2[C@@H]1CC[C@@H]2C` [I-239] showed an inhibition at 320 µM (stock) of 5.7%. With `COC(=O)C1=CO[C@@H](OC(=O)Nc2cccc(C(C)=O)c2)[C@H]2[C@@H]1CC[C@@H]2C` [I-273] the inhibition at 320 µM (stock) was 17.5%. Molecule `CNC(=O)O[C@@H]1OC=C(C(=O)OC)[C@H]2CC[C@H](C)[C@@H]12` [I-254] has an inhibition at 320 µM (stock) of 4.6%. With `COC(=O)C1=CO[C@@H](OC(=O)NCc2ccc(F)cc2F)[C@H]2[C@@H]1CC[C@@H]2C` [I-195] the inhibition at 320 µM (stock) was 3.7%. Molecule `CCNC(=O)O[C@@H]1OC=C(C(=O)OC)[C@H]2CC=C(C)[C@@H]12` [I-151] has an inhibition at 320 µM (stock) of 38.1%. `CONC(=O)O[C@@H]1OC=C(C(=O)OC)[C@H]2CC=C(C)[C@@H]12` [I-137] showed an inhibition at 320 µM (stock) of 6.4%. Work on `COC(=O)C1=CO[C@@H](OC(=O)NCCO)[C@H]2[C@@H]1CC[C@@H]2C` [I-187] yielded an inhibition at 320 µM (stock) of 11.7%. Molecule `COC(=O)C1=CO[C@@H](OC(=O)Nc2ccc(F)cc2)[C@H]2[C@@H]1CC[C@@H]2C` [I-264] has an inhibition at 320 µM (stock) of 29.2%. With `COC(=O)C1=CO[C@@H](OC(=O)Nc2ccc(Cl)cc2)[C@H]2[C@@H]1CC[C@@H]2C` [I-260] the inhibition at 320 µM (stock) was 2.5%. In the case of `COC(=O)C1=CO[C@@H](OC(=O)N2CCN(CCO)CC2)[C@@H]2C(C)=CC[C@H]12` [I-71], the inhibition at 320 µM (stock) was 4.1%.

Same assay, conditions: Tables 75-83; 0.32 mM sample solution; method as for Compounds 1 through 60
`CNC(=O)O[C@@H]1OC=C(C(=O)O)[C@H]2CC=C(C)[C@@H]12` [I-307] was tested, and the “TFA (inhibition rate, %)” value was 50.2%.
